Laboratory results published in US20180303807A1, “ANDROGEN RECEPTOR LIGANDS” (DUKE UNIVERSITY, priority 2015, published 2018).
Residue numbers refer to the chain shown, from its start.

How the values were obtained:
Format in all cases: cell-based
AR [1] = molecular target: T1, AR (Homo sapiens, UniProt P10275); assay: Reporter gene assay, AR transcriptional (MMTV-Luc) in CV1 cells; details: pcDNA-AR + MMTV-Luc, 0.1 nM R1881 plus test compound, 24 hrs, read-out: B1 = AR transcriptional IC50 (μM) in CV1 cells
T1 construct: expressed in transfected cells; host or cells: CV1 cells
T1 sequence (P10275 1-920): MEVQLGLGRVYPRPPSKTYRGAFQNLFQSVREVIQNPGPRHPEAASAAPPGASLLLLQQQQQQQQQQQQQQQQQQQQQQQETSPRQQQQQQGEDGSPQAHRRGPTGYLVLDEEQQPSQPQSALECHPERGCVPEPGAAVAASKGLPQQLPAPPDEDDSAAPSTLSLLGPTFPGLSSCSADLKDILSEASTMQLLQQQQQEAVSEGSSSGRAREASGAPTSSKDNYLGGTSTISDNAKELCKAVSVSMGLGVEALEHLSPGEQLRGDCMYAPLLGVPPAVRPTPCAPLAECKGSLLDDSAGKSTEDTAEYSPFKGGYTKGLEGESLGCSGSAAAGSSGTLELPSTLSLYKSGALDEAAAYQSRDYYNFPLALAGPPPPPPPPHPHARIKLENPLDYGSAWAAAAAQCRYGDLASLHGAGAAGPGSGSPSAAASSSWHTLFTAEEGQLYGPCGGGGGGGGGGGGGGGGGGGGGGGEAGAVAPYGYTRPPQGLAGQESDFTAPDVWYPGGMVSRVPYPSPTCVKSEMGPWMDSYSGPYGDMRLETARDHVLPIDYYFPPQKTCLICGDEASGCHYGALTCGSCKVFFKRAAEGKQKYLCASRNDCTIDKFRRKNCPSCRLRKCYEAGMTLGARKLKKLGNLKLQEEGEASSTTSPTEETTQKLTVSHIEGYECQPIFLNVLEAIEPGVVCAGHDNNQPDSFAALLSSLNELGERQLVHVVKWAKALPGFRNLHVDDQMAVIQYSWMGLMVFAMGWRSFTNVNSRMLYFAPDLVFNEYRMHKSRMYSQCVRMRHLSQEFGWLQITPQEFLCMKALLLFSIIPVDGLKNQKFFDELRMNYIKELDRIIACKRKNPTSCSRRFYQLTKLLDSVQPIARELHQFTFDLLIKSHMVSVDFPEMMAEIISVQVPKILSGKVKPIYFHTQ
In short: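 CV1 cells transiently co-transfected with human AR, MMTV-Luc reporter and Renilla-Luc (transfection efficiency and toxicity read-out), then stimulated 24 h with 0.1 nM R1881 plus increasing test compound concentrations. Firefly and Renilla luciferase quantified by dual-luciferase assay; IC50 derived from concentration-response.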

AR [2] = assay: Real-time PCR of AR target gene transcription in LNCaP-AR (AR overexpressing) cells, CRPC model; parameters: key to B5 = Relative antagonist activity (plus 0.1 nM R1881) of test compounds (20 μM) in AR overexpressing LNCaP cells (NKX3.1 AR target gene) / B7 = Relative antagonist activity (plus 0.1 nM R1881) of test compounds (20 μM) in AR overexpressing LNCaP cells (PSA AR target gene): a score of 1 indicates higher antagonist efficacy (highly desired activity) than benchmark compound enzalutamide; a score of 2 indicates equal antagonist efficacy to enzalutamide (desirable); a score of 3 indicates antagonist efficacy between enzalutamide and bicalutamide (less desirable activity); a score of 4 indicates antagonist efficacy equal to bicalutamide (liability); a score of 5 indicates antagonist efficacy worse than bicalutamide (liability); key to B4 = Relative agonist activity (no R1881) of test compounds (20 μM) in AR overexpressing LNCaP cells (NKX3.1 AR target gene) / B6 Relative agonist activity (no R1881) of test compounds (20 μM) in AR overexpressing LNCaP cells (PSA AR target gene): a score of 1 indicates less agonism (highly desired activity) than benchmark compound enzalutamide; a score of 2 indicates equal agonism to enzalutamide (desirable); a score of 3 indicates agonism between enzalutamide and bicalutamide (less desirable activity); a score of 4 indicates equal agonism to bicalutamide (liability); a score of 5 indicates higher agonism than bicalutamide (liability); details: for B6 Relative agonist activity (no R1881) of test compounds (20 μM) in AR overexpressing LNCaP cells (PSA AR target gene) / B7 = Relative antagonist activity (plus 0.1 nM R1881) of test compounds (20 μM) in AR overexpressing LNCaP cells (PSA AR target gene) / B4 = Relative agonist activity (no R1881) of test compounds (20 μM) in AR overexpressing LNCaP cells (NKX3.1 AR target gene) / B5 = Relative antagonist activity (plus 0.1 nM R1881) of test compounds (20 μM) in AR overexpressing LNCaP cells (NKX3.1 AR target gene): score vs enzalutamide/bicalutamide; for B7 = Relative antagonist activity (plus 0.1 nM R1881) of test compounds (20 μM) in AR overexpressing LNCaP cells (PSA AR target gene): plus 0.1 nM R1881, PSA gene; for B4 = Relative agonist activity (no R1881) of test compounds (20 μM) in AR overexpressing LNCaP cells (NKX3.1 AR target gene): no R1881, NKX3.1 gene; for B5 = Relative antagonist activity (plus 0.1 nM R1881) of test compounds (20 μM) in AR overexpressing LNCaP cells (NKX3.1 AR target gene): plus 0.1 nM R1881, NKX3.1 gene
Description: Real-Time PCR (CRPC model of AR overexpressing prostate cancer cells, Table 2, B4-B7). LNCaP-AR (AR overexpressing cells) cells were seeded in 12-well plates in RPMI 1640 (8% charcoal-stripped fetal calf serum (CFS)). […] AR target gene transcription (PSA, NKX3.1, FKBP5) was assessed by realtime PCR.
(§1) For B4-B7, scoring system is based on the relative AR target gene agonist/antagonist activity of test compounds when compared to benchmark compounds enzalutamide or bicalutamide. […] The lack of agonist activity is desirable for therapies intended to treat CRPC. For B4 and B6, a score of 1 indicates less agonism (highly desired activity) than benchmark compound enzalutamide, a score of 2 indicates equal agonism to enzalutamide (desirable), a score of 3 indicates agonism between enzalutamide and bicalutamide (less desirable activity), a score of 4 indicates equal agonism to bicalutamide (liability), and a score of 5 indicates higher agonism than bicalutamide (liability). For B5 and B7 a score of 1 indicates higher antagonist efficacy (highly desired activity) than benchmark compound enzalutamide, a score of 2 indicates equal antagonist efficacy to enzalutamide (desirable), a score of 3 indicates antagonist efficacy between enzalutamide and bicalutamide (less desirable activity), a score of 4 indicates antagonist efficacy equal to bicalutamide (liability), and a score of 5 indicates antagonist efficacy worse than bicalutamide (liability) For B9, Compounds that degrade AR (greater than 50% degradation at 10 μM) are indicated.

CV1 cells = assay: Toxicity of test compound in the CV1 reporter gene assay (Renilla-Luc)
Description: Reporter Gene Assay (IC50 determination, Table 2, B1-B3). CV1 cells were seeded into 96-well cell culture plates and transfected with Lipofectin. For AR transcriptional assays, the DNA mixture consisted of pcDNA-AR, MMTV-Luc (androgen responsive reporter gene), and Renilla-Luc (for assessing transfection efficiency and toxicity). Following overnight incubation, cells were induced with hormone (0.1 nM R1881 (synthetic AR agonist) plus increasing concentrations of test compound) for 24 hrs. Cells were lysed and luciferase activity was quantified using Dual Luciferase Reagent (DLR). IC50 determination was assessed using GraphPad Prism software.

AR [3] = molecular target: T2, AR (Homo sapiens, UniProt P10275, T878A); assay: In Cell Western AR degradation assay in LNCaP cells; details: 18 hrs, greater than 50% degradation at 10 μM (method says 20 μM)
T2 construct: endogenous in cells; host or cells: LNCaP cells
T2 sequence (P10275 1-920 T878A): T1 sequence (P10275 1-920) with T878A
Description: In Cell Western (AR degradation Assay, Table 2, B10). LNCaP cells were plated in 96-well clear bottom black plates (20K cells/well) in RPMI supplemented with 8% CFS. Following 48 hr incubation, cells were treated with hormone (20 μM test compound) for 18 hrs. Cells were fixed with formaldehyde (3.7%) and permeabilized using PBS (0.1% TRITON X-100). Cells were incubated with anti-AR antibody (N20, 1:2000), washed with PBS (0.1% Tween), and stained with 2nd antibody (Biotium CF770 goat anti-rabbit, 1:2000). AR protein expression was assessed using the LI-COR Odyssey imaging system. DRAQ5 (DNA stain, 1:10,000, Thermo Scientific) was used to normalize AR protein expression.
as §1

With `N#Cc1ccc(C2C3=C(CCCC3=O)Nc3ccc4ccccc4c32)cc1` (stereo not shown) [Compound A22] the IC50 (AR [1]) was over 10 µM, the “B6 Relative agonist activity (no R1881) of test compounds (20 μM) in AR overexpressing LNCaP cells (PSA AR target gene)” value (“B6 Relative agonist activity (no R1881)” for short) (AR [2]) was 3 and the “B7 = Relative antagonist activity (plus 0.1 nM R1881) of test compounds (20 μM) in AR overexpressing LNCaP cells (PSA AR target gene)” value (“B7 = Relative antagonist activity” below) (AR [2]) was 3. The “B2 = % Toxicity of test compound (20 μM)” value (CV1 cells) was 0% and the “B3 = % Toxicity of test compound (60 μM)” value (CV1 cells) was 66%.
With `O=C1CCCC2=C1C(c1ccc(Cl)cc1Cl)c1c(ccc3ccccc13)N2` (stereo not shown) [Compound A7] the IC50 (AR [1]) was 3.8 µM, the “B4 = Relative agonist activity (no R1881) of test compounds (20 μM) in AR overexpressing LNCaP cells (NKX3.1 AR target gene)” value (AR [2]) was 1 and the “B6 Relative agonist activity (no R1881)” value (AR [2]) was 1. For the same molecule, the “B5 = Relative antagonist activity (plus 0.1 nM R1881) of test compounds (20 μM) in AR overexpressing LNCaP cells (NKX3.1 AR target gene)” value (AR [2]) was 2, the “B7 = Relative antagonist activity” value (AR [2]) was 1 and the “B2 = % Toxicity of test compound (20 μM)” value (CV1 cells) was 75%. The “B3 = % Toxicity of test compound (60 μM)” value (CV1 cells) was 91%.
`CNC(=O)c1ccc(N2C(=S)N(c3ccc(C#N)c(C(F)(F)F)c3)C(=O)C2(C)C)cc1F` [Enzalutamide, enzalutamide, reference compound] was tested, and the “agonist activity in AR overexpressing LNCaP cells (model of CRPC)” value (AR [2]; benchmark compounds, AR overexpressing LNCaP cells) was “does not possess agonist activity”.
For `CC1(C)CC(=O)C2=C(C1)Nc1ccc3ccccc3c1C2c1ccc(Cl)c([N+](=O)[O-])c1` (stereo not shown) [Compound A6], the IC50 (AR [1]) was 3.8 µM, the “B4 = Relative agonist activity (no R1881) of test compounds (20 μM) in AR overexpressing LNCaP cells (NKX3.1 AR target gene)” value (AR [2]) was 1 and the “B6 Relative agonist activity (no R1881)” value (AR [2]) was 1. The “B5 = Relative antagonist activity (plus 0.1 nM R1881) of test compounds (20 μM) in AR overexpressing LNCaP cells (NKX3.1 AR target gene)” value (AR [2]) was 1, the “B7 = Relative antagonist activity” value (AR [2]) was 1 and the “B2 = % Toxicity of test compound (20 μM)” value (CV1 cells) was 0%. For the same molecule, the “B3 = % Toxicity of test compound (60 μM)” value (CV1 cells) was 0%.
`CC1(C)CC(=O)C2=C(C1)Nc1ccc3ncccc3c1C2c1ccc(Cl)c([N+](=O)[O-])c1` (stereo not shown) [Compound A75] was tested, and the “B9 = AR degradation in LNCaP cells (In-Cell Western)” value (“B9 = AR degradation in LNCaP cells” for short) (AR [3]) was “Degrader (Compounds that degrade AR (greater than 50% degradation at 10 μM) are indicated)” and the IC50 (AR [1]) was over 10 µM.
In the case of `CC1(C)CC(=O)C2=C(C1)Nc1ccc3cn[nH]c3c1C2c1ccc(Br)s1` (stereo not shown) [Compound A110], the “B9 = AR degradation in LNCaP cells” value (AR [3]) is reported as “Degrader (Compounds that degrade AR (greater than 50% degradation at 10 μM) are indicated)” and the IC50 (AR [1]) is reported as over 10 µM.
For `Cn1ncc2ccc3c(c21)C(c1ccc(F)c(F)c1)C1=C(CC(C)(C)CC1=O)N3` (stereo not shown) [Compound A78], the “B9 = AR degradation in LNCaP cells” value (AR [3]) was “Degrader (Compounds that degrade AR (greater than 50% degradation at 10 μM) are indicated)” and the IC50 (AR [1]) was over 10 µM.
For `CC1(C)CC(=O)C2=C(C1)Nc1ccc3cccnc3c1C2c1ccc(F)c(F)c1` (racemic) [Compound A96, (±)-12-(3,4-difluorophenyl)-9,9-dimethyl-8,9,10,12-tetrahydrobenzo[j][1,7]phenanthrolin-11(7H)-one], the “B9 = AR degradation in LNCaP cells” value (AR [3]) was “Degrader (Compounds that degrade AR (greater than 50% degradation at 10 μM) are indicated)” and the IC50 (AR [1]) was 0.8 µM.
With `CC1(C)CC(=O)C2=C(C1)Nc1ccc3ncccc3c1C2c1nccs1` (stereo not shown) [Compound A67] the “B9 = AR degradation in LNCaP cells” value (AR [3]) was “Degrader (Compounds that degrade AR (greater than 50% degradation at 10 μM) are indicated)” and the IC50 (AR [1]) was over 10 µM.
`CC1(C)CC(=O)C2=C(C1)Nc1ccc3ncccc3c1C2c1cc(Br)c(Br)s1` (stereo not shown) [Compound A76] was tested, and the “B9 = AR degradation in LNCaP cells” value (AR [3]) was “Degrader (Compounds that degrade AR (greater than 50% degradation at 10 μM) are indicated)” and the IC50 (AR [1]) was 2.2 µM.
With `Cc1ccsc1C1C2=C(CC(C)(C)CC2=O)Nc2ccc3ccccc3c21` (stereo not shown) [Compound A117] the “B9 = AR degradation in LNCaP cells” value (AR [3]) was “Degrader (Compounds that degrade AR (greater than 50% degradation at 10 μM) are indicated)” and the IC50 (AR [1]) was 2.3 µM.
